Data reported in US8389544B2, “Isoquinolone compounds as subtype-selective agonists for melatonin receptors MT1 and MT2” (The Hong Kong University of Science and Technology, priority 2007, dated 2013).
Where two headings read alike, the source gives them in different places.

Key:
MT2 receptor = molecular target: T1, MT2 receptor (Homo sapiens, UniProt P49286); test: FLIPR Ca2+ mobilization assay, MT2; type: cell-based; parameters: expressed in transfected cells; host or cells: COS-7 (monkey kidney fibroblast); conditions: for agonist character / receptor subtype selectivity in words: FLIPR results, MT1 versus MT2; for Emax: read-out: % Response of 2-IMT; for % Response of 2-IMT: MT2, relative to 2-IMT response
T1 sequence (P49286 1-362): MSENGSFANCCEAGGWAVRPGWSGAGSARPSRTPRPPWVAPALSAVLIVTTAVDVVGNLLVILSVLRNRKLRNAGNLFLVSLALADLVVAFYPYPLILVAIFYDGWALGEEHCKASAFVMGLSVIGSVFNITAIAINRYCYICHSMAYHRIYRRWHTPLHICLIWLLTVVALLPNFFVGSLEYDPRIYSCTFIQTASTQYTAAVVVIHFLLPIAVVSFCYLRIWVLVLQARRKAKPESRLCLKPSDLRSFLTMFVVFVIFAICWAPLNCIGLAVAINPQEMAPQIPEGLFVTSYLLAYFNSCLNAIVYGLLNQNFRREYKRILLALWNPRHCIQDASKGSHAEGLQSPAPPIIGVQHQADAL
Method: (§1) 1. FLIPR Ca^2+ Mobilization Assay
(§2) This assay indicates the ability of the novel compounds to activate MT1 and MT2 receptors by measuring downstream events of the activated receptor, in this case intracellular calcium mobilization.
(§3) 1. Intracellular Ca^2+ Mobilization Assay Using Fluorometric Imaging Plate Reader (FLIPR®)
(§4) An intracellular calcium mobilization assay was performed to screen the isoquinolone compounds against the two melatonin receptor subtypes, MT1 and MT2 on the fluorometric imaging plate reader (FLIPR®). In order to facilitate the screening process in a high-throughput manner, chimeric G proteins with the ability to couple to a range of GPCR as well as activate intracellular Ca^2+ were employed. The melatonin receptor subtype (either MT1 or MT2) was co-expressed with the G-protein chimeras in COS-7 (monkey kidney fibroblast) cells. During the assay, cells were exposed to the novel isoquinolone compounds and the corresponding change in fluorescence was measured. Both single point and dose-dependant assays were performed for each isoquinolone compound and based on the latter a dose response curve was generated and the corresponding EC50 for each receptor subtype determined.
(§5) Specifically, COS-7 cells were seeded at a density of 20,000 cells/well into 96-well plates designed for FLIPR assays, using Opti-MEM with 10% FCS at a volume of 100 μl/well. Transfection was carried out using Lipofectamine 2000® reagent. In each well, 0.2 μg of the GPCR and G protein cDNA were diluted with 25 μl of Opti-MEM and 0.2 μl of Lipofectamine 2000® was diluted with another 25 μl of Opti-MEM. They were added to appropriate wells after the two components were mixed for 20 min.
(§6) After 48 hours of incubation post-transfection, 50 μl of the transfection medium was removed from each well followed by the labelling of transfected cells with 100 μl of 2 μM Fluo-4 in calcium containing HBSS (Hank's balanced salt solution) with 20 mM HEPES (N-[2-hydroxyethyl]piperazine—N′-[2-ethanesulfonic acid]; pH 7.5) and 2.5 mM probenecid (anion exchanger inhibitor, freshly prepared) for 1 hour at 37° C. 70 μl of 3× drugs (isoquinolinone compounds encompassing the invention) were prepared and aliquoted into the corresponding wells in the V-well drug plate. Changes in fluorescence were detected in the FLIPR 96 with an excitation wavelength of 488 nm. The background fluorescence was adjusted to the range of 8,000 to 12,000 units by altering the laser power and exposure time (typically 0.4 W and 0.4 sec, respectively) for the FLIPR setup. 50 μl of each agonist solution was added to the corresponding wells and the fluorescent emission (between 510 and 560 nm) was monitored for 3 min. Results were expressed as change in fluorescent intensity units (FIU). Concentration-response curves were generated by determining the maximal change in FIU of each data set. Numerical analysis of the statistics and EC50 (median effective concentration) values were performed on GraphPad Prism version 3.03.
(§7) Then the intracellular Ca^2+ mobilization assays using the Fluorometric Imaging Plate Reader (FLIPR®) were performed as described above.

MT1 receptor = MT1 receptor (Homo sapiens, UniProt P48039); test: FLIPR Ca2+ mobilization assay, MT1; type: cell-based; parameters: expressed in transfected cells; host or cells: COS-7 (monkey kidney fibroblast); conditions: for % Response of 2-IMT: MT1, relative to 2-IMT response
Method: as §1, §2, §3, §4, §5, §6, §7

[1] = Table 1, MT2 in COS-7 cells with chimeric G protein, log value, negative, NSR = no significant response, read-out: Log(EC50) ± SEM (converted)
[2] = Table 1, MT1 in COS-7 cells with chimeric G protein, log value, negative, NSR = no significant response
[3] = Table 1, MT2 in COS-7 cells with chimeric G protein, log value, negative, NSR = no significant response
[4] = Table 1, MT1 in COS-7 cells with chimeric G protein, log value, negative, NSR = no significant response, read-out: Log(EC50) ± SEM (converted)

MT1 receptor, sequence (P48039 whole entry): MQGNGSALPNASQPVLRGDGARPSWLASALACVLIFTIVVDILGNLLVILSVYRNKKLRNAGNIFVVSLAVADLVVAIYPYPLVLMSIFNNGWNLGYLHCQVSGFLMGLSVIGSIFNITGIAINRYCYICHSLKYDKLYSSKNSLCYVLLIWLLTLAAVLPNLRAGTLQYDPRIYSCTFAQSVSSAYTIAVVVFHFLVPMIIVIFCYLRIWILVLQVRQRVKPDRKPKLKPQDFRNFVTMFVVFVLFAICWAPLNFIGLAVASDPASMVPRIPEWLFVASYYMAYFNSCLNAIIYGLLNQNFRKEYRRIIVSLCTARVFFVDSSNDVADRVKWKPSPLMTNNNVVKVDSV

Row | SMILES | EC50 (MT2 receptor; [1]) [nM] | Emax (MT2 receptor) [%] | Log(EC50) ± SEM (MT1 receptor; [2]) | Log(EC50) ± SEM (MT2 receptor; [3]) | % Response of 2-IMT (MT1 receptor; Table 1) [%] | also measured
1 | COc1ccc2c(=O)n(C)ccc2c1OCCCc1ccccc1 [IS008] | 562 | 57.6 | NSR |  |  | agonist character / receptor subtype selectivity in words (MT2 receptor): activated MT2 only
2 | COc1ccc2c(=O)n(C)ccc2c1OCc1ccc(C(C)(C)C)cc1 [IS532] |  |  | NSR | −5.57 ± 0.75 |  | % Response of 2-IMT (MT2 receptor; Table 1): 22.3%
3 | Cn1ccc2ccc(O)c(O)c2c1=O [IS037] | 525 | 42.1 | NSR |  |  | 
4 | COc1cc2ccn(C)c(=O)c2cc1OCCCc1ccccc1 [IS013] |  |  | −5.22 ± 1.28 | −6.00 ± 0.01 | 75.0 | % Response of 2-IMT (MT2 receptor; Table 1): 101.9%
5 | COc1cc2c(=O)n(C)ccc2cc1OCCCc1ccccc1 [IS017] | 107 | 107 | NSR |  |  | 
6 | COc1cc2ccn(C)c(=O)c2cc1OCCCCCl [IS098] | 6.17 | 44.7 | NSR |  |  | 
7 | COc1ccc(C(=O)COc2c(OC)ccc3c(=O)n(C)ccc23)cc1 [IS010] |  |  | NSR | −6.35 ± 0.06 |  | % Response of 2-IMT (MT2 receptor; Table 1): 53.0%
8 | COc1ccc2c(=O)n(C)ccc2c1OCc1ccccc1 [IS005] |  | 62.9 |  |  | 30.5 | activity / efficacy at MT2 compared to 2-IMT (MT2 receptor): 63%; agonist character / receptor subtype selectivity in words (MT2 receptor): partial agonist; EC50 (MT2 receptor; read-out: EC50 MT2): 48.5 nM; activity / activation at MT1 compared to 2-IMT (MT1 receptor; running text b158, b160): 31%; EC50 (MT1 receptor; running text b158, read-out: EC50 MT1): 5.81 nM
9 | COc1cc2ccn(C)c(=O)c2cc1O [IS002, 7-hydroxyl-6-methoxyl-2-methyl-1(2H)-isoquinolone] | 871 | 47 |  |  | 31.7 | EC50 (MT1 receptor; [4]): 1740 nM
10 | COc1cc2c(=O)n(C)ccc2cc1O [IS001, 6-Hydroxyl-7-methoxyl-2-methyl-1(2H)-isoquinolone] |  |  |  | NSR | 71.9 | EC50 (MT1 receptor; [4]): 1580 nM
11 | COc1cc2c(=O)n(C)ccc2cc1OCc1ccccc1 [IS016] | 2750 | 145 |  |  | 65.3 | EC50 (MT1 receptor; [4]): 1350 nM
12 | COc1cc2ccn(C)c(=O)c2cc1OCc1ccccc1 [IS003] |  |  | NSR | NSR |  | 
13 | COc1ccc2c(=O)n(C)ccc2c1OCc1ccc(Br)cc1 [IS009] | 123 | 37.4 | NSR |  |  | agonist character / receptor subtype selectivity in words (MT2 receptor): activated MT2 only
14 | COc1cc2ccn(C)c(=O)c2cc1OCCCI [IS101, 7-(3-iodopropyloxyl)-6-methoxyl-2-methyl-1(2H)-isoquinolone] | 603 | 65.8 | NSR |  |  | 
15 | COc1ccc(O)c2c(=O)n(C)ccc12 [IS030] |  |  | −5.98 ± 0.04 | −5.52 | 67.5 | % Response of 2-IMT (MT2 receptor; Table 1): 39.4%
16 | C=CCOc1c(OC)ccc2c(=O)n(C)ccc12 [IS007] | 3.47 | 49.1 | NSR |  |  | EC50 (MT2 receptor; read-out: EC50 MT2): 3.51 nM
